Reference: PMC7751408, “Production, purification and biochemical characterisation of a novel lipase from a newly identified lipolytic bacterium Staphylococcus caprae NCU S6” (Journal of Enzyme Inhibition and Medicinal Chemistry, 2020)

Tested on: T1, SCNL (lipase from Staphylococcus caprae NCU S6)
T1 construct: native extracellular enzyme purified from culture supernatant of the source strain (ammonium sulphate, ultrafiltration, Sephadex G-50, DEAE-Sepharose); ~87 kDa by SDS-PAGE
Assay: colorimetric p-nitrophenol release at […] nm, Lineweaver-Burk
Assay type: biochemical
Conditions: 0.1-5.0 mM p-NPP, optimum conditions (optimal pH 9.0 and 40 °C); free enzyme

SMILES: CCCCCCCCCCCCCCCC(=O)Oc1ccc([N+](=O)[O-])cc1 [p-nitrophenyl palmitate]
- Km: 695 µM
